Reference: ChEMBL document CHEMBL4033689, “Potential inhibitors of human carbonic anhydrase isozymes I and II: Design, synthesis and docking studies of new 1,3,4-thiadiazole derivatives” (Bioorg Med Chem, 2017)

These compounds were tested against Carbonic anhydrase 2 (Homo sapiens, UniProt P00918) (assay: Inhibition of carbonic anhydrase-2 in […] assessed as reduction in H+ release using CO2 as substrate by bromine thymol blue indicator based assay).

IC50, Not Active:
O=C(CSc1nnc(Nc2ccccc2)s1)N/N=C/c1ccc(-c2ccc(Cl)c(Cl)c2)o1
O=C(CSc1nnc(Nc2ccccc2)s1)N/N=C/c1ccc(-c2ccc([N+](=O)[O-])cc2)o1
O=C(CSc1nnc(Nc2ccccc2)s1)N/N=C/c1ccc(-c2ccc(Cl)cc2[N+](=O)[O-])o1
